Experimental data as given in the supplement of paper PMC10307832.

Key:
Test in all cases: relative viability (nuclei count vs DMSO), 5 days (fraction); higher = more cells survive
[1] = compound: Cn1nnc2c(C(N)=O)ncn2c1=O [Temozolomide] + CC(=O)c1c(C)c2cnc(Nc3ccc(N4CCNCC4)cn3)nc2n(C2CCCC2)c1=O [Palbociclib] (partner 0.5 µM)
In short: (§1)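 Nuclei were stained with Hoechst during a one-step fixation (final 0.05% Triton X-100, 1% formaldehyde, 1 ug/ml Hoechst) carried out 5 days after dosing, then counted on 4× images. The cells, lung cancer lines in 1536-well plates, had been dosed by pin tool the day after seeding with one drug alone or a fixed anchor-drug dose plus five library-drug doses (not always all listed) in √10 steps. Relative viability is the nuclei count in treated wells divided by that in vehicle wells, and each value is the median of duplicate plates.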

[2] = compound: Cn1nnc2c(C(N)=O)ncn2c1=O [Temozolomide] + Cc1cc(Nc2cc(N3CCN(C)CC3)nc(Sc3ccc(NC(=O)C4CC4)cc3)n2)n[nH]1 [Tozasertib] (partner 0.1 µM)
In short: as §1

[3] = compound: Cn1nnc2c(C(N)=O)ncn2c1=O [Temozolomide] + Cc1nc(NC(=O)N2CCC[C@H]2C(N)=O)sc1-c1ccnc(C(C)(C)C(F)(F)F)c1 [Alpelisib] (partner 2 µM)
In short: as §1

[4] = compound: Cn1nnc2c(C(N)=O)ncn2c1=O [Temozolomide] + N=C(N)NC(=N)NCCc1ccccc1 [Phenformin] (partner 250 µM)
In short: as §1

Cell Line	relative viability ([1]; first compound 0.6325 µM)	relative viability ([1]; first compound 2 µM)	relative viability ([1]; first compound 6.325 µM)	relative viability ([1]; first compound 20 µM)	relative viability ([2]; first compound 0.2 µM)	relative viability ([2]; first compound 0.6325 µM)	relative viability ([2]; first compound 2 µM)	relative viability ([2]; first compound 6.325 µM)	relative viability ([2]; first compound 20 µM)	relative viability ([3]; first compound 0.2 µM)	relative viability ([3]; first compound 0.6325 µM)	relative viability ([3]; first compound 2 µM)	relative viability ([3]; first compound 6.325 µM)	relative viability ([3]; first compound 20 µM)	relative viability ([4]; first compound 0.2 µM)	relative viability ([4]; first compound 0.6325 µM)	relative viability ([4]; first compound 2 µM)	relative viability ([4]; first compound 6.325 µM)	relative viability ([4]; first compound 20 µM)	relative viability ([1]; first compound 0.2 µM)
EKVX	0.322	0.292	0.323	0.223	0.256	0.395	0.385	0.335	0.42	0.335	0.935	0.856	0.886	0.656	0.185	0.232	0.232	0.236	0.216	–
NCI-H1755	0.478	0.477	0.436	0.424	0.579	0.549	0.58	0.594	0.528	0.972	0.952	0.853	0.881	0.59	0.68	0.598	0.621	0.547	0.532	0.443
NCI-H2228	1.03	0.809	0.798	0.614	0.246	0.322	0.206	0.212	0.251	0.77	0.721	0.516	0.813	0.679	0.411	0.508	0.307	0.3	0.351	0.918
NCI-H460	0.175	0.152	0.267	0.183	0.441	0.418	0.518	0.368	0.339	0.58	0.526	0.51	0.479	0.461	0.52	0.54	0.492	0.488	0.478	0.159
HCC-44	0.943	0.921	0.988	0.981	0.795	0.953	1.06	0.848	0.996	0.811	0.842	0.868	0.786	0.717	0.194	0.238	0.17	0.185	0.315	0.984
BEN	0.466	0.469	0.487	0.471	0.465	0.5	0.415	0.526	0.436	0.914	1.29	0.939	0.977	0.757	0.286	0.288	0.229	0.27	0.26	0.483
H3255	0.315	0.302	0.312	0.297	–	0.534	0.613	0.532	0.17	–	0.686	0.599	0.755	0.146	–	0.385	0.344	0.403	0.185	–
A-427	0.575	0.518	0.492	0.427	0.201	0.206	0.219	0.152	0.157	1.05	1.06	1.05	0.878	0.547	0.314	0.364	0.39	0.246	0.267	0.519
NCI-H1651	0.557	0.5	0.526	0.547	0.716	0.779	0.674	0.684	0.684	0.966	0.941	1.03	0.93	0.92	0.388	0.332	0.353	0.268	0.351	0.497
EPLC-272H	0.337	0.356	0.321	0.299	0.263	0.191	0.232	0.28	0.252	0.727	1.08	0.947	0.849	0.664	0.156	0.305	0.332	0.461	0.28	0.319
NCI-H2009	0.217	0.238	0.224	0.225	0.821	0.722	0.766	0.762	0.735	1.15	1.17	1.21	1.11	1.24	0.521	0.482	0.534	0.402	0.487	0.274
HCC-15	0.717	0.805	0.691	0.706	0.522	0.412	0.5	0.384	0.599	0.903	0.947	0.898	0.993	0.834	0.502	0.531	0.519	0.418	0.513	0.778
NCI-H3122	0.202	0.175	0.174	0.153	0.257	0.482	0.47	0.356	0.46	0.75	0.776	0.795	0.73	0.663	0.394	0.378	0.385	0.376	0.369	0.206
NCI-H838	0.237	0.226	0.25	0.252	0.267	0.286	0.309	0.264	0.254	1.1	1.06	1.1	0.968	1.02	0.63	0.616	0.676	0.568	0.635	0.23
NCI-H1975	0.608	0.564	0.606	0.485	0.975	0.718	0.823	0.699	0.737	0.711	0.712	0.718	0.642	0.676	0.444	0.423	0.438	0.417	0.423	0.575
